One experiment addresses human JAK1 (Homo sapiens (Human), UniProt P23458). In words: JAK1 TR-FRET kinase assay. The format is biochemical. A general note: TR-FRET usually uses a lanthanide donor and a delayed reading to cut background.
In another experiment the target is human JAK2 (Homo sapiens (Human), UniProt O60674). Nature of the experiment: JAK2 TR-FRET kinase assay. It is filed as biochemical. As to conditions: JAK2 0.025 nM.
The next experiment has as its target TYK2 JH2 domain (Homo sapiens (Human), UniProt P29597). Nature of the experiment: TYK2 JH2 NanoBRET assay. It is filed as binding. As to conditions: Table 20, read-out: TYK2 IC50. In outline: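 HEK293T cells transiently expressing NanoLuc-TYK2 JH2 fusion, incubated 2 h with compound and NanoBRET K10 tracer (0.5 µM final). Target engagement read as acceptor/donor BRET ratio after Nano-Glo substrate plus extracellular NanoLuc inhibitor.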

For another experiment, the target named is human JAK3 (Homo sapiens (Human), UniProt P52333). Nature of the experiment: JAK3 TR-FRET kinase assay. The format is biochemical. As to conditions: JAK3 0.0125 nM.
Chain of human JAK3 (P52333 whole entry): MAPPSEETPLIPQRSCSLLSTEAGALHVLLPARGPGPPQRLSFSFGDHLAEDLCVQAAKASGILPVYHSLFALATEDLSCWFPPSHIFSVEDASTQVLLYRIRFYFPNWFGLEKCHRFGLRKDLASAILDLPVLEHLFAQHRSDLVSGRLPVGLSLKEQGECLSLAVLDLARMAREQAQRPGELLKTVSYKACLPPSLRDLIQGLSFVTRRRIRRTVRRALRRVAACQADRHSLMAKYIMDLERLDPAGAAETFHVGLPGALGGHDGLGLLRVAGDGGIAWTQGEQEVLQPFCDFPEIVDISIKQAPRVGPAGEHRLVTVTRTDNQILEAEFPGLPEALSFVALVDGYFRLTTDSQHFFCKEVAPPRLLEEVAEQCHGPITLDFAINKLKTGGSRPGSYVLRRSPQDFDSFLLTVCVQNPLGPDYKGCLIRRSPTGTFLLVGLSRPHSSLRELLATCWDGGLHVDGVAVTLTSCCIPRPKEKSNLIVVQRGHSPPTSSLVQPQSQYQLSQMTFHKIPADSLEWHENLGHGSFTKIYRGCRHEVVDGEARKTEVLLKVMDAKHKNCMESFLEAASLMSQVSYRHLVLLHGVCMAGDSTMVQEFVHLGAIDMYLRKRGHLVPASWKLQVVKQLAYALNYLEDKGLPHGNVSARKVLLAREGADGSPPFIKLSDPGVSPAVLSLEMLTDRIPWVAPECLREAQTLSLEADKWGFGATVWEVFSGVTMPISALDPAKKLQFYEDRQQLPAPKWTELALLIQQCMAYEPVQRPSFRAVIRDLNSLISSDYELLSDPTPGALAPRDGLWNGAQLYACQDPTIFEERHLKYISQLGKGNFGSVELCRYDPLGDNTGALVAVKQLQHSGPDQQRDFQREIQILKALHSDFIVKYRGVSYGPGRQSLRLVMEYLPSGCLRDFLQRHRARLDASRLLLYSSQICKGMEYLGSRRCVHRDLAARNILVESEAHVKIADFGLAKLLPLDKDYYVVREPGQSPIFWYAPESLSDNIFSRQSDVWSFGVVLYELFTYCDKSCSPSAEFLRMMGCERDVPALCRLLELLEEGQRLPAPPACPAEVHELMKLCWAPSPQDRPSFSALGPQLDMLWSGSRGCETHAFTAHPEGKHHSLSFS

IC50 data for 32 compounds are collected here from US20230295119A1, “SUBSTITUTED PYRIDINES FOR THE TREATMENT OF INFLAMMATORY DISEASES” (GOSSAMER BIO SERVICES, INC., priority 2020, published 2023).

Like-named read-outs stand apart in the source and are kept apart here.

Chain of human JAK2 (O60674 whole entry, the tested form may be a part): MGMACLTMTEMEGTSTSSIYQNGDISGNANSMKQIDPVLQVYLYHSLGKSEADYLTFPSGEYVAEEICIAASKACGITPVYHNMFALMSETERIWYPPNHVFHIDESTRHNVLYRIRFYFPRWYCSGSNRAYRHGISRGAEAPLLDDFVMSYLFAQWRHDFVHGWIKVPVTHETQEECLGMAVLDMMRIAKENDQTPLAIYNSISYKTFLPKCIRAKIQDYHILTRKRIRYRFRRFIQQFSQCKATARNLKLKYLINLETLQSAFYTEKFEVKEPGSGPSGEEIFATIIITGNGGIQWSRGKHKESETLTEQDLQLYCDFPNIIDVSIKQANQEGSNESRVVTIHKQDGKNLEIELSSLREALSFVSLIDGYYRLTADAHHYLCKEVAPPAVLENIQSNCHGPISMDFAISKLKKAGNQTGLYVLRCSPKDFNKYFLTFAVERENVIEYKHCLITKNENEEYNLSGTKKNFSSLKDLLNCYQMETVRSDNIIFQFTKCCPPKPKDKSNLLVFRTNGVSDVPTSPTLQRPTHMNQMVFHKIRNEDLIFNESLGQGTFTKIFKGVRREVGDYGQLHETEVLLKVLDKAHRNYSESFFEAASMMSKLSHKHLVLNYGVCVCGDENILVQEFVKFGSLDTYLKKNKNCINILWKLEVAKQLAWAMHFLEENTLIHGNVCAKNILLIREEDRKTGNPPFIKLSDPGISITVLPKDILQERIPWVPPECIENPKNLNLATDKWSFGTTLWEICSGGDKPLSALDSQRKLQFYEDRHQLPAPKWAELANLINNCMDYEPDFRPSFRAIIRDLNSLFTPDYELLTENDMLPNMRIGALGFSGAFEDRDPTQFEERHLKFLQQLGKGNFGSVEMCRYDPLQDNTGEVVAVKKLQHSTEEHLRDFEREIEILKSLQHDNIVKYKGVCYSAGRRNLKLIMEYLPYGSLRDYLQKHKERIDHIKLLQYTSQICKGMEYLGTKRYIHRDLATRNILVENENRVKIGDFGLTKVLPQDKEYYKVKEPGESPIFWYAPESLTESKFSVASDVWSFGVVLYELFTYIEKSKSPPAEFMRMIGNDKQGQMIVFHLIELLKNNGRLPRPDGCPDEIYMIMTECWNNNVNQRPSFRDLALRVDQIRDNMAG
Chain of human JAK1 (P23458 whole entry): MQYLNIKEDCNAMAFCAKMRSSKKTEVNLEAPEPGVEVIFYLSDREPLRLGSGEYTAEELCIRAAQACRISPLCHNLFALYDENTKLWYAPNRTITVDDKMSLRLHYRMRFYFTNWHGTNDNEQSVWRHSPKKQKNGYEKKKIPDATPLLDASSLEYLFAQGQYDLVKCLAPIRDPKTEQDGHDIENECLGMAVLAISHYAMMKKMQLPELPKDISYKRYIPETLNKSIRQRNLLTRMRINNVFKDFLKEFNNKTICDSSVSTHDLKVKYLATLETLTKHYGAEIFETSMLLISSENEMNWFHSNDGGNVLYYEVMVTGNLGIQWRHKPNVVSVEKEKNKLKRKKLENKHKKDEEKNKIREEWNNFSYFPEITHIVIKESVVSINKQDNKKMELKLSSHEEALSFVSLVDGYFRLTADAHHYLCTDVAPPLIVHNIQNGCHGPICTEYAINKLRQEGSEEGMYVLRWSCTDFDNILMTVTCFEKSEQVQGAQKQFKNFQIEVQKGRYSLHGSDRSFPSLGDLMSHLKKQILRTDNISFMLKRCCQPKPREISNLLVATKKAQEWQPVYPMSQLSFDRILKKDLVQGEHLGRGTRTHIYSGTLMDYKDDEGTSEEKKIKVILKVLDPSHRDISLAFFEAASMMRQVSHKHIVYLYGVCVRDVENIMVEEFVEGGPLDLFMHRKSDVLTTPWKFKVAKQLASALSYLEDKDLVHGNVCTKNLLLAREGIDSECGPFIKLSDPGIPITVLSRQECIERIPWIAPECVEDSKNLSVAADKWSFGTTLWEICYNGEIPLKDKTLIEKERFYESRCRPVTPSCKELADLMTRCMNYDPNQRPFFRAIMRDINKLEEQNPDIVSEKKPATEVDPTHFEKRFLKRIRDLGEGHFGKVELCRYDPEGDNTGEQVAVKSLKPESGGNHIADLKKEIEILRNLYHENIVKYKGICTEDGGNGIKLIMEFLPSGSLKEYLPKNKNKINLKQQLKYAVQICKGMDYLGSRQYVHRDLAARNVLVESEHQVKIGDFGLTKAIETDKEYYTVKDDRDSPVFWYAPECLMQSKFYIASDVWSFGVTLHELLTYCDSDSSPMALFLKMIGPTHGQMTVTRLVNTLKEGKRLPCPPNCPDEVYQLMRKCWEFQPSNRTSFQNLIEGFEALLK
Chain of TYK2 JH2 domain (P29597 589-875): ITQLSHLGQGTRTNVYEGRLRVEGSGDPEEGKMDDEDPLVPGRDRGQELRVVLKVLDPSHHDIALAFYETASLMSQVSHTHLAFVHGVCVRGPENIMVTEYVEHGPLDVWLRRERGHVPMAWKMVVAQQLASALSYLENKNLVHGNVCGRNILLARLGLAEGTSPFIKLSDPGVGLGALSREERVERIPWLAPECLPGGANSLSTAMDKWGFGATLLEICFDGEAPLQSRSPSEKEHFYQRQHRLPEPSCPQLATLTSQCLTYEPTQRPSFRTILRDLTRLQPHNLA

As for `CCC(=O)c1cnc(Nc2ccc(C(N(C)C)C(F)(F)F)cn2)cc1Nc1cccc(-c2ncn(C)n2)c1OC` (centres unmarked) [Compound 9V], the IC50 (commonly the concentration at which inhibition is half-maximal) is at least 500 nM against human JAK1 (TR-FRET, JAK1 2.5 nM); at least 500 nM against human JAK2; below 5 nM on TYK2 JH2 domain; at least 500 nM against human JAK3.

Take `CCC(=O)c1cnc(Nc2ccc(O[C@@H]3CCN(C)C3)cn2)cc1Nc1cccc(-c2ncc(F)cn2)c1OC` [Compound 18VVV]: the IC50 is at least 500 nM against human JAK1 (TR-FRET, JAK1 2.5 nM); at least 500 nM against human JAK2; 5 to 50 nM at TYK2 JH2 domain; 50 to 500 nM against human JAK3.

Consider `CCC(=O)c1cnc(Nc2cccc(C(=O)N(C)C)n2)cc1Nc1cccc(-c2ncn(C)n2)c1OC` [Compound 8L], for which the IC50 at human JAK1 (TR-FRET, JAK1 2.5 nM) was at least 500 nM; against human JAK2 it was at least 500 nM; at TYK2 JH2 domain it was 5 to 50 nM; at human JAK3, at least 500 nM.

Regarding `CCC(=O)c1cnc(Nc2ccn([C@H]3C[C@H](OC)C3)n2)cc1Nc1cccc(-c2ncn(C)n2)c1OC` [Compound 21L], the IC50 is at least 500 nM on human JAK1 (TR-FRET, JAK1 2.5 nM); at least 500 nM against human JAK2; 5 to 50 nM at TYK2 JH2 domain; at least 500 nM at human JAK3.

On to `CCC(=O)c1cnc(Nc2ccc(CN3CCS(=N)(=O)CC3)cn2)cc1Nc1cccc(-c2ncn(C)n2)c1OC` [Compound 9WW], for which the IC50 against human JAK1 (TR-FRET, JAK1 2.5 nM) was at least 500 nM; against human JAK2, 50 to 500 nM; at TYK2 JH2 domain, 5 to 50 nM; at human JAK3, 50 to 500 nM.

Consider `CCC(=O)c1cnc(Nc2ccc(OC3CCN(C)CC3)cn2)cc1Nc1cccc(-c2ncn(C)n2)c1OC` [Compound 18Y], for which the IC50 is at least 500 nM on human JAK1 (TR-FRET, JAK1 2.5 nM); 50 to 500 nM on human JAK2; below 5 nM on TYK2 JH2 domain; 50 to 500 nM against human JAK3.

For `CCC(=O)c1cnc(Nc2ccn([C@H]3C[C@@H](OC(F)F)C3)n2)cc1Nc1cccc(-c2ncn(C)n2)c1OC` [Compound 21BB], the IC50 at human JAK1 (TR-FRET, JAK1 2.5 nM) was at least 500 nM; against human JAK2, at least 500 nM; at TYK2 JH2 domain, below 5 nM; on human JAK3, at least 500 nM.

Turning to `CCC(=O)c1cnc(Nc2ccc(S(C)(=O)=O)cn2)cc1Nc1ccc(C(=O)N2CCCC2)cc1OC` [Compound 13W], the IC50 at human JAK1 (TR-FRET, JAK1 2.5 nM) is at least 500 nM; on human JAK2, 50 to 500 nM; at TYK2 JH2 domain it was 50 to 500 nM; against human JAK3 it was 50 to 500 nM.

On to `CCC(=O)c1cnc(Nc2ccc([C@@H](C)N(C)C)cn2)cc1Nc1cccc(-c2ncn(C)n2)c1OC` [Compound 9J], for which the IC50 at human JAK1 (TR-FRET, JAK1 2.5 nM) was at least 500 nM; against human JAK2 it was at least 500 nM; on TYK2 JH2 domain, below 5 nM; at human JAK3, at least 500 nM.

Regarding `CCC(=O)c1cnc(Nc2ccc(-n3ccccc3=O)cn2)cc1Nc1nccc(-c2ncn(C)n2)c1OC` [Compound 15U], the IC50 against human JAK1 (TR-FRET, JAK1 2.5 nM) was at least 500 nM; on human JAK2, at least 500 nM; on TYK2 JH2 domain it was 5 to 50 nM; on human JAK3, at least 500 nM.

Regarding `CCC(=O)c1cnc(Nc2ccc(-n3ccccc3=O)cn2)cc1Nc1cccc(-c2ncn(C)n2)c1OC` [Compound 15A, 6′-((4-((2-methoxy-3-(1-methyl-1H-1,2,4-triazol-3-yl)phenyl)amino)-5-propionylpyridin-2-yl)amino)-2H-[1,3′-bipyridin]-2-one], the IC50 against human JAK1 (TR-FRET, JAK1 2.5 nM) was at least 500 nM; against human JAK2 it was at least 500 nM; at TYK2 JH2 domain it was below 5 nM; at human JAK3, at least 500 nM.

With `CCC(=O)c1cnc(Nc2cnc(O[C@@H]3CCN(CC(F)(F)F)C3)cn2)cc1Nc1cccc(-c2ncn(C)n2)c1OC` [Compound 18LLL], the IC50 on human JAK1 (TR-FRET, JAK1 2.5 nM) was at least 500 nM; against human JAK2, at least 500 nM; on TYK2 JH2 domain, 5 to 50 nM; at human JAK3, at least 500 nM.

As for `CCC(=O)c1cnc(Nc2ccc(C(C)NCC(F)F)cn2)cc1Nc1cccc(-c2ncn(C)n2)c1OC` (centres unmarked) [Compound 9AA], the IC50 at human JAK1 (TR-FRET, JAK1 2.5 nM) was at least 500 nM; at human JAK2, 50 to 500 nM; at TYK2 JH2 domain it was below 5 nM; at human JAK3, 50 to 500 nM.

As for `CCC(=O)c1cnc(Nc2cc(C(=O)NC)ncn2)cc1Nc1cccc(-c2ncn(C)n2)c1OC` [Compound 8N], the IC50 against human JAK1 (TR-FRET, JAK1 2.5 nM) was at least 500 nM; at human JAK2, at least 500 nM; on TYK2 JH2 domain, below 5 nM; on human JAK3, at least 500 nM.

Regarding `CCC(=O)c1cnc(Nc2ccn([C@H]3C[C@@H](OC)C3)n2)cc1Nc1cccc(-c2ncn(C)n2)c1OC` [Compound 21A, 1-(4-((2-methoxy-3-(1-methyl-1H-1,2,4-triazol-3-yl)phenyl)amino)-6-((1-(3-methoxycyclobutyl)-1H-pyrazol-3-yl)amino)pyridin-3-yl)propan-1-one], the IC50 against human JAK1 (TR-FRET, JAK1 2.5 nM) was at least 500 nM; against human JAK2, at least 500 nM; on TYK2 JH2 domain, 5 to 50 nM; against human JAK3, at least 500 nM.

Consider `CCC(=O)c1cnc(Nc2ccc(-c3cnn(C)c3)cn2)cc1Nc1cccc(-c2ncn(C)n2)c1OC` [Compound 15D], for which the half-maximal inhibitory concentration (IC50) against human JAK1 (TR-FRET, JAK1 2.5 nM) was at least 500 nM; on human JAK2, at least 500 nM; at TYK2 JH2 domain, below 5 nM; against human JAK3 it was at least 500 nM.

Regarding `CCC(=O)c1cnc(Nc2cc(OCCOC)n(C)n2)cc1Nc1cccc(-c2ncn(C)n2)c1OC` [Compound 24A, 1-(4-((2-methoxy-3-(1-methyl-1H-1,2,4-triazol-3-yl)phenyl)amino)-6-((5-(2-methoxyethoxy)-1-methyl-1H-pyrazol-3-yl)amino)pyridin-3-yl)propan-1-one], the IC50 was above 500 nM against human JAK1, 50 to 500 nM on human JAK2, below 5 nM on TYK2 JH2 domain and 50 to 500 nM against human JAK3.

For `CCC(=O)c1cnc(Nc2ccnc(O[C@@H]3CCN(C)C3)n2)cc1Nc1cccc(-c2ncn(C)n2)c1OC` [Compound 18LL], the IC50 was at least 500 nM against human JAK1 (TR-FRET, JAK1 2.5 nM); at least 500 nM on human JAK2; 5 to 50 nM on TYK2 JH2 domain; at least 500 nM against human JAK3.

As for `CCC(=O)c1cnc(Nc2cnc(CN(C)CC(F)F)cn2)cc1Nc1cccc(-c2ncn(C)n2)c1OC` [Compound 9WWW], the IC50 is at least 500 nM against human JAK1 (TR-FRET, JAK1 2.5 nM); at least 500 nM against human JAK2; 5 to 50 nM at TYK2 JH2 domain; at least 500 nM at human JAK3.

In the case of `CCC(=O)c1cnc(Nc2ccc(O[C@@H]3CCN(C)C3)nn2)cc1Nc1cccc(-c2ncn(C)n2)c1OC` [Compound 18FF], the IC50 against human JAK1 (TR-FRET, JAK1 2.5 nM) is at least 500 nM; against human JAK2, at least 500 nM; on TYK2 JH2 domain it was 5 to 50 nM; at human JAK3, at least 500 nM.

Consider `CCC(=O)c1cnc(Nc2cn([C@H]3C[C@@H](O)C3)cn2)cc1Nc1cccc(-c2ncn(C)n2)c1OC` [Compound 21P], for which the IC50 was at least 500 nM against human JAK1 (TR-FRET, JAK1 2.5 nM); at least 500 nM against human JAK2; 5 to 50 nM at TYK2 JH2 domain; at least 500 nM against human JAK3.

Take `CCC(=O)c1cnc(Nc2ccnc(OCCCN(C)C)n2)cc1Nc1cccc(-c2ncn(C)n2)c1OC` [Compound 18HH]: the IC50 is at least 500 nM against human JAK1 (TR-FRET, JAK1 2.5 nM); at least 500 nM at human JAK2; below 5 nM at TYK2 JH2 domain; at least 500 nM at human JAK3.

As to `CCC(=O)c1cnc(Nc2ccc([C@H](C)N3CC[C@H](O)C3)cn2)cc1Nc1cccc(-c2ncn(C)n2)c1OC` [Compound 9LL], the IC50 was at least 500 nM against human JAK1 (TR-FRET, JAK1 2.5 nM); at least 500 nM against human JAK2; below 5 nM at TYK2 JH2 domain; 50 to 500 nM at human JAK3.

Regarding `CCC(=O)c1cnc(Nc2nc(CN(C)C)ccc2F)cc1Nc1cccc(-c2ncn(C)n2)c1OC` [Compound 9UUUU], the IC50 against human JAK1 (TR-FRET, JAK1 2.5 nM) was at least 500 nM; on human JAK2 it was at least 500 nM; on TYK2 JH2 domain, 50 to 500 nM; against human JAK3, at least 500 nM.

`CCC(=O)c1cnc(Nc2ccc(CN(C)C)cn2)cc1Nc1cccc(-c2ncn(C)n2)c1OC` [Compound 9A, 1-(6-((5-((dimethylamino)methyl)pyridin-2-yl)amino)-4-((2-methoxy-3-(1-methyl-1H-1,2,4-triazol-3-yl)phenyl)amino)pyridin-3-yl)propan-1-one]: the IC50 at human JAK1 (TR-FRET, JAK1 2.5 nM) is at least 500 nM; on human JAK2 it was at least 500 nM; on TYK2 JH2 domain, below 5 nM; against human JAK3 it was at least 500 nM.

With `CCO[C@H]1C[C@@H](n2nc(Nc3cc(Nc4cccc(-c5ncn(C)n5)c4OC)c(C(=O)CC)cn3)cc2C)C1` [Compound 21FF], the IC50 is at least 500 nM on human JAK1 (TR-FRET, JAK1 2.5 nM); at least 500 nM against human JAK2; below 5 nM on TYK2 JH2 domain; at least 500 nM on human JAK3.

`CCC(=O)c1cnc(Nc2ccc(OCC3COC3)cn2)cc1Nc1cccc(-c2ncn(C)n2)c1OC` [Compound 18AA]: the IC50 was at least 500 nM on human JAK1 (TR-FRET, JAK1 2.5 nM); 50 to 500 nM on human JAK2; below 5 nM at TYK2 JH2 domain; 50 to 500 nM against human JAK3.

For `CCC(=O)c1cnc(Nc2cc(CCN3CCCC3)ncn2)cc1Nc1cccc(-c2ncn(C)n2)c1OC` [Compound 11G], the IC50 was at least 500 nM at human JAK1 (TR-FRET, JAK1 2.5 nM); at least 500 nM against human JAK2; below 5 nM at TYK2 JH2 domain; 50 to 500 nM on human JAK3.

In the case of `CCC(=O)c1cnc(Nc2ccc(S(=O)(=O)N3CCOCC3)cn2)cc1Nc1cccc(-c2ncn(C)n2)c1OC` [Compound 13E], the IC50 was at least 500 nM on human JAK1 (TR-FRET, JAK1 2.5 nM); at least 500 nM against human JAK2; below 5 nM at TYK2 JH2 domain; at least 500 nM at human JAK3.

For `CCC(=O)c1cnc(Nc2cnc(O[C@@H]3CCN(CC(F)F)C3)cn2)cc1Nc1cccc(-c2ncn(C)n2)c1OC` [Compound 18KKK], the IC50 against human JAK1 (TR-FRET, JAK1 2.5 nM) is at least 500 nM; against human JAK2 it was at least 500 nM; on TYK2 JH2 domain it was 5 to 50 nM; at human JAK3, at least 500 nM.

In the case of `CCC(=O)c1cnc(Nc2cc(-c3cnn(C)c3)ccn2)cc1Nc1cccc(-c2ncn(C)n2)c1OC` [Compound 15G], the IC50 against human JAK1 (TR-FRET, JAK1 2.5 nM) is at least 500 nM; at human JAK2, at least 500 nM; at TYK2 JH2 domain, below 5 nM; against human JAK3, at least 500 nM.

For the compound `CCC(=O)c1cnc(NC(=O)CCN2CCCC2)cc1Nc1cccc(-c2ncn(C)n2)c1OC` [Compound 23D], the IC50 is at least 500 nM against human JAK1 (TR-FRET, JAK1 2.5 nM); at least 500 nM at human JAK2; 50 to 500 nM at TYK2 JH2 domain; at least 500 nM at human JAK3.
